From ChEMBL document CHEMBL1201862, “PubChem BioAssay data set” (2004)
Calls of active or inactive are those of the source.

Tests used:
[1] = target: T1, Calpain-2 catalytic subunit (Sus scrofa, UniProt P43367); experiment: pig calpain II inhibitor potency, dose response, biochemical, fluorogenic peptide substrate (AID 1420); assay type: functional
T1 sequence (P43367 whole entry): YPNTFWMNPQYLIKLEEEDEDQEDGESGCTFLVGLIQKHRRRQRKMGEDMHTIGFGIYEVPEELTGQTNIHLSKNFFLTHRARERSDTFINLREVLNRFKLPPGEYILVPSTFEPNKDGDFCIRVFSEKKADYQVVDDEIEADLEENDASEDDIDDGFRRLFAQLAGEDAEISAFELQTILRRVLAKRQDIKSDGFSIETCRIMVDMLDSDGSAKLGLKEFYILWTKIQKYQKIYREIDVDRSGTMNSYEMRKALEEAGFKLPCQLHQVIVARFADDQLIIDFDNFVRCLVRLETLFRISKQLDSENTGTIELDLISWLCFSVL

[2] = target: T2, Ubiquitin-conjugating enzyme E2 N (Homo sapiens, UniProt P61088); assay type: functional;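 also: Dose-response confirmation in a TR-FRET assay detecting UBC13-driven polyubiquitin chain formation, inhibition measured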
T2 sequence (P61088 whole entry): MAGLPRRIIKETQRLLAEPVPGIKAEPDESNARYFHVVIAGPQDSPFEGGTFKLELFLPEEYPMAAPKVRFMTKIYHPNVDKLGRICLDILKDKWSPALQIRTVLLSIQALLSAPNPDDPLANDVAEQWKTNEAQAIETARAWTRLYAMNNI

[3] = Luminescence Cell-Based Dose Retest to Confirm Inhibitors of Cancer Stem Cells. [Related pubchem assays (depositor defined):AID2717, AID2721]; assay type: functional; details: Homo sapiens
[4] = Luminescence Cell-Based Dose Confirmation HTS to Identify Inhibitors of Platelet Dense Granule Release. [Related pubchem assays: 1663 (Primary HTS), 1678 (Summary of Project)]; assay type: functional
[5] = target: Luciferin 4-monooxygenase (Photinus pyralis, UniProt P08659); experiment: firefly luciferase enzyme inhibitors, dose response, biochemical, luminescence (AID 1891)
[6] = inhibitors of firefly luciferase expression or activity, dose response, H4 neuroglioma cells, luminescence (AID 1990); assay type: functional, cell-based
[7] = Luminescence Cell-Based Dose Response HTS to Identify Inhibitors of 5'UTR Stem-Loop Driven Prion Protein mRNA Translation in H4 Neuroglioblastoma Cells. [Related pubchem assays: 1827 (Project Summary), 1813 (Primary HTS)]; assay type: functional
[8] = inhibitors of SNCA 5'UTR-driven reporter translation, confirmation, H4 neuroglioma cells, luminescence (AID 1988); assay type: functional, cell-based
[9] = target: T3, Rac GTPase-activating protein 1 (Homo sapiens, UniProt Q9H0H5); experiment: MgcRacGAP GTPase-activating activity inhibitors, confirmation, biochemical, ADP Hunter fluorescence, primary and confirmatory (AID 624330); assay type: functional
T3 sequence (Q9H0H5 whole entry): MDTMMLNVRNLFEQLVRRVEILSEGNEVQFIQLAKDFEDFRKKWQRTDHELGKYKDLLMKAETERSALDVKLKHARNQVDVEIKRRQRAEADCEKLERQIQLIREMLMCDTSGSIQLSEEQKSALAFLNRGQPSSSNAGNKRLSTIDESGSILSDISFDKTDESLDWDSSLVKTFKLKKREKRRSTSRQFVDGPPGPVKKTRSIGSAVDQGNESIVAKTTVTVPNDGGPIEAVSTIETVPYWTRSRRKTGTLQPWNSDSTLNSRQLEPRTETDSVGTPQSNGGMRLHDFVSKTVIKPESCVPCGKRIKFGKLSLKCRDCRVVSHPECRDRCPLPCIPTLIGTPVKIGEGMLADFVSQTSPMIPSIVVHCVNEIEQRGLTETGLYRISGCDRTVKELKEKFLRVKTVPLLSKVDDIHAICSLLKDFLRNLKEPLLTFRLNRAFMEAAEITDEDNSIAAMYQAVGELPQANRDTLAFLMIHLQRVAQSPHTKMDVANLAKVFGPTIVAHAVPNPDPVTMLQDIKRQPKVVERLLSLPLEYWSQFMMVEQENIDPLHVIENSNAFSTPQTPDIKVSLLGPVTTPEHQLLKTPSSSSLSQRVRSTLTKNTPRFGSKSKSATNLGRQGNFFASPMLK

[10] = target: Induced myeloid leukemia cell differentiation protein Mcl-1 (Homo sapiens, UniProt Q07820); assay type: functional
[11] = target: Cytochrome P450 2C19 (Homo sapiens, UniProt P33261); experiment: Cytochrome panel assay with activity outcomes. Panel member name: p450-cyp2c19 Compounds with AC50 equal or less than 10 uM are considered active; assay type: functional; details: read-out: AC50
[12] = system: H9c2; experiment: cells; assay type: functional, cell-based; details: Rattus norvegicus, H9c2, Myocardium;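 also: confirmatory concentration-response retest of ultra-high-throughput screening hits for modulation of myocardial damage; cell death induced by hydrogen peroxide oxidative stress; compound pretreatment for 60 min then peroxide exposure for 2 h; potency is for protecting the cells against peroxide damage rather than for killing them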
[13] = target: T4, Heat shock factor protein 1 (Mus musculus, UniProt P38532); experiment: HSF1 potentiators in luciferase reporter cells, confirmation, cell-based, NIH3T3, luminescence, dose retest (AID 435004); assay type: functional;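 also: stress induced by proteasome inhibitor MG132 added 30 min after compound; luciferase reporter driven by HSF1 response element in NIH3T3 cells; actives raise luminescence as potentiators of the MG132 stress response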
T4 sequence (P38532 whole entry): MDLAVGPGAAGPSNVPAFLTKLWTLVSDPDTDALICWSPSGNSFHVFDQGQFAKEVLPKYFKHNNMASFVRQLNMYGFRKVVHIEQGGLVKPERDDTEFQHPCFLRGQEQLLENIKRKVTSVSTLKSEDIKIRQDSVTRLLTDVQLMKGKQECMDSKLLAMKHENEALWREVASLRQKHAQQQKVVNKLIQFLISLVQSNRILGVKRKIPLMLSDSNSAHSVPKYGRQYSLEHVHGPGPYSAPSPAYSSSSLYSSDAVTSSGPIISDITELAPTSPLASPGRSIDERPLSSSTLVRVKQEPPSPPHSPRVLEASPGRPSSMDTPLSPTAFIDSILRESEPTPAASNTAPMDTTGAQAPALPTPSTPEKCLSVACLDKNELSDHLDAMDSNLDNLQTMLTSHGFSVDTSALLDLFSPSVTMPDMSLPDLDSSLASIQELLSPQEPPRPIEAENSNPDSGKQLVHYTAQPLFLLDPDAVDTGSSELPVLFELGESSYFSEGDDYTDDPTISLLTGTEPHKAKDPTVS

[14] = target: T5, Polyadenylate-binding protein 1 (Homo sapiens, UniProt P11940); experiment: PABP1 MLLE–PAM2 binding inhibitor potency, dose response, biochemical, fluorescence polarization, FITC-PAM2 peptide (AID 602259); assay type: functional; details: read-out: IC50_Mean
[15] = target: T5, Polyadenylate-binding protein 1; experiment: PABP1 MLLE–PAM2 interaction inhibitors, dose response, miRNA deadenylation inhibitor project, biochemical, fluorescence polarization, Cy5-PAM2 peptide, secondary (AID 602260); assay type: functional; details: read-out: IC50_Mean
[16] = system: P388; experiment: cells; assay type: functional; details: Mus musculus
[17] = system: SN12K1; experiment: cells; assay type: functional; details: Homo sapiens
[18] = system: P388/ADR; experiment: cells; assay type: functional; details: Mus musculus
[19] = C. albicans growth with fluconazole, confirmation, fluorescence, retest (AID 2467); assay type: functional, cell-based
[20] = NIH-3T3 fibroblast cytotoxicity, dose response, cytotoxicity control, cell-based, fluorescence, Alamar Blue, secondary assay (AID 2327); assay type: functional;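 also: NIH-3T3 mouse fibroblasts cultured with fluconazole at 8 µg/mL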

Luciferin 4-monooxygenase, sequence (P08659 whole entry): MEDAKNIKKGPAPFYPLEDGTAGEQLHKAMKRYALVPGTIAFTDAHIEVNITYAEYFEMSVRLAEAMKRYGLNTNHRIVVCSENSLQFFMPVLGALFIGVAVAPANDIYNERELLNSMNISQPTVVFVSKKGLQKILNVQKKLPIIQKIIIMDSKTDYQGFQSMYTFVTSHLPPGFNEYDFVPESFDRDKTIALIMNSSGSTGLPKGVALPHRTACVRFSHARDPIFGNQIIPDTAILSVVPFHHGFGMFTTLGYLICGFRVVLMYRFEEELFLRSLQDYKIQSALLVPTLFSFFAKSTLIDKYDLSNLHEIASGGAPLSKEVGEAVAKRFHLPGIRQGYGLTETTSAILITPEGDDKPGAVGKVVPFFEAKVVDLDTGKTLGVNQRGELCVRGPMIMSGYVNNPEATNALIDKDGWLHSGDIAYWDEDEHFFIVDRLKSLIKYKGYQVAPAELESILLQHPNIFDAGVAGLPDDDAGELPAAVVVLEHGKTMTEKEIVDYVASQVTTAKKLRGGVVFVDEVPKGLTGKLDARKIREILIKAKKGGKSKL
Induced myeloid leukemia cell differentiation protein Mcl-1, sequence (Q07820 whole entry): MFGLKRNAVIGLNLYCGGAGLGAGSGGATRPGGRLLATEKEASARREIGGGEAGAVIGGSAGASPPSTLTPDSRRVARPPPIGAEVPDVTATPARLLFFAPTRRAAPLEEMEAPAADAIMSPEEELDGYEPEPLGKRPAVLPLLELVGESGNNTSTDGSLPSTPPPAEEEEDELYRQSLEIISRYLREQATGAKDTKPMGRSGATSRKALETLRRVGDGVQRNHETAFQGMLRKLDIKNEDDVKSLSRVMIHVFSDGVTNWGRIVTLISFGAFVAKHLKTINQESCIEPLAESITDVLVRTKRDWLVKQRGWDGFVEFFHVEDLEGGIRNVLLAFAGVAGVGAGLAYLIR
T5 sequence (P11940 whole entry): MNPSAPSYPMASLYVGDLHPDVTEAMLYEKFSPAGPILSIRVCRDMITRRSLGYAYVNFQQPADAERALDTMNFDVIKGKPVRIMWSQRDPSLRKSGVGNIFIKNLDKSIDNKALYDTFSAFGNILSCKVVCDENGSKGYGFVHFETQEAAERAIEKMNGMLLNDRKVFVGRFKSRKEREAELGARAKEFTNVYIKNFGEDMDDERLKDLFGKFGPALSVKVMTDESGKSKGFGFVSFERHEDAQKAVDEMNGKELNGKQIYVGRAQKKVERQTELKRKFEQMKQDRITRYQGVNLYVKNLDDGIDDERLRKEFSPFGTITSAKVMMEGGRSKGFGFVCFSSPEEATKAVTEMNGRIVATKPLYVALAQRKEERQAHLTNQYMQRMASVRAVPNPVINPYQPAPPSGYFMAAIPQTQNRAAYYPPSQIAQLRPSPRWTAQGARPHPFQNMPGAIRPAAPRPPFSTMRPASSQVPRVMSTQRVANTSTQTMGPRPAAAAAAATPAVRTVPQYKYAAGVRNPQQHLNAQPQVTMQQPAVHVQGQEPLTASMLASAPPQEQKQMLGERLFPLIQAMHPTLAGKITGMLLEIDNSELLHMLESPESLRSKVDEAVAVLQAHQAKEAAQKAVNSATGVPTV
Cytochrome P450 2C19, sequence (P33261 whole entry): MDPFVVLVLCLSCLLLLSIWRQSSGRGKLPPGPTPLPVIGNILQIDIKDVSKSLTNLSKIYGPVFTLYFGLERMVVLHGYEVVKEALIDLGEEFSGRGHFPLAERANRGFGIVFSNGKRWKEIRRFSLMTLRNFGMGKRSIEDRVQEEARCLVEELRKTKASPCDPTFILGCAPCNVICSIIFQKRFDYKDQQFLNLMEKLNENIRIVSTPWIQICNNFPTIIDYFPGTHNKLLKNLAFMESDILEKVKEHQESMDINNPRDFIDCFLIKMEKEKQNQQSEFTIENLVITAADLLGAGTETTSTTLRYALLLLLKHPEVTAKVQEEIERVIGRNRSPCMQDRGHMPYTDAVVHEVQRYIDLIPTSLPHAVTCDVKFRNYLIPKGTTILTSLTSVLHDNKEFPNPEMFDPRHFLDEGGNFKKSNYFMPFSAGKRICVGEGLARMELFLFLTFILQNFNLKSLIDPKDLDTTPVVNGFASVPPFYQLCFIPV

Cc1ccc(C(=O)NC(=S)NCc2cccnc2)c(C)c1
IC50 [1]: > 50 µM (not active)

CCOC(=O)CSc1nc2ccccc2c(=O)n1NC(=O)c1ccccc1
IC50 [2]: > 20 µM (inactive)

CCOc1ccc(NC(=O)CCCOc2cc(=O)n(C)c3ccccc23)cc1
IC50 [2]: > 20 µM (inactive)

CCCCCc1cc(=O)oc2c(C(CCN3CCCCC3)c3cc(OC)c(OC)c(OC)c3)c(OC)cc(OC)c12 (configuration not stated)
AC50 [3]: 6.58 µM (active)
IC50 [2]: > 20 µM (inactive)

CCOC(=O)Cc1sc(N)nc1C
EC50 [4]: > 112 µM (not active)
EC50 [5]: > 112 µM (not active)

c1ccc2nc(-c3ccc(N4CCOCC4)cc3)ccc2c1
EC50 [6]: 4.01 µM (inconclusive)
EC50 [4]: 3.7 µM (active)
EC50 [7]: 0.757 µM (active)
EC50 [8]: 0.413 µM (inconclusive)
EC50 [5]: 0.793 µM (active)

CCCCCc1nc2sc3c(c2c(=O)n1N)CCC3
EC50 [4]: > 112 µM (not active)
EC50 [5]: > 112 µM (not active)

CCOc1ccc(S(=O)(=O)NCCC(=O)N2CCCN(C)CC2)cc1
EC50 [4]: > 112 µM (not active)
EC50 [5]: > 112 µM (not active)

CN(C)c1ccc(NC(=O)c2cccc(N3C(=O)C4C5C=CC(C5)C4C3=O)c2)cc1 (configuration not stated)
IC50 [9]: 49.2 µM (active)
IC50 [10]: 1.89 µM (not active)
AC50 [11]: 25.1 µM (inconclusive)

CC(=O)Nc1ccc(C(=O)N(C)c2ccccc2)cc1
EC50 [4]: > 112 µM (not active)
EC50 [5]: > 112 µM (not active)

O=c1cc(COc2ncnc3c(Cl)cc(Cl)cc23)nc2sccn12
EC50 [4]: > 112 µM (not active)
IC50 [12]: > 79 µM (inactive)
EC50 [5]: > 112 µM (not active)

CC(=O)c1c(S)nc(-c2ccccc2)nc1N1CCCC1
IC50 [1]: > 50 µM (not active)

CCOC(=O)N1CCN(C(=O)CCCN2C(=O)CSc3nc(C)cc(C)c32)CC1
EC50 [4]: > 112 µM (not active)
EC50 [5]: > 112 µM (not active)

CCOc1cccc2cc(C(=O)NCc3cccnc3)c(=O)oc12
EC50 [4]: > 112 µM (not active)
EC50 [5]: > 112 µM (not active)

O=C(c1ccccc1)c1ccc2nc(-c3ccco3)c(-c3ccco3)nc2c1
IC50 [10]: 6.46 µM (active)
EC50 [13]: 32.3 µM (active)

Cc1ccc(NC(=O)C[S+]([O-])CC(=O)NCCCc2ccccc2)cc1Cl (configuration not stated)
IC50 [2]: > 20 µM (inactive)

COc1cc(NS(=O)(=O)c2ccc(NC(=S)NC(=O)c3sc4cc(F)ccc4c3Cl)cc2)nc(OC)n1
IC50 [10]: 4.37 µM (not active)
IC50 [14]: > 66 µM (inactive)
IC50 [15]: > 66 µM (inactive)

NS(=O)(=O)c1ccc(CCNC(=O)c2cc(-c3ccco3)nc3ccccc23)cc1
IC50 [2]: > 20 µM (inactive)

Cc1csc(NC(=O)c2ccco2)n1
EC50 [4]: 20.1 µM (active)
EC50 [5]: > 112 µM (not active)

CC(C)C[C@@H]1CN=C(N)N1C[C@@H]1CCCN1C[C@H](C)N1C[C@@H](Cc2ccccc2)N(CCCC2CCCC2)C1=N
IC50 [2]: > 20 µM (inactive)

CC[C@@H](C)[C@@H]1CN([C@@H](CN2CCC[C@H]2CN2C(N)=NC[C@H]2CC(C)C)C(C)C)C(=N)N1CCCC1CCCC1
IC50 [2]: > 20 µM (inactive)

CC(O)CCC(=O)c1ccoc1 (configuration not stated)
GI50 [16]: 4940 µM (inactive)
GI50 [17]: 7230 µM (inactive)
GI50 [18]: 3660 µM (inactive)

COc1ccc(/C=N/Nc2nccnc2Cl)c(OC)c1
EC50 [4]: 2.65 µM (active)
EC50 [5]: 6.55 µM (active)

Cc1nc(=O)n2c(c1C(=O)Nc1ccc(Cl)cc1)NCC2
GI50 [16]: > 31.6 µM (inactive)

CC1NC(=O)C(C)C(c2ccccc2)N(N=O)C1c1ccccc1 (configuration not stated)
GI50 [16]: 21 µM (inactive)
GI50 [17]: > 100 µM (inactive)
GI50 [18]: 0.933 µM (active)

ClCc1ccc2ccc3ccc(CCl)nc3c2n1
GI50 [16]: 1.51 µM (inactive)
GI50 [17]: 1.87 µM (inactive)
GI50 [18]: 0.883 µM (active)

C=C1C(=O)OC2CC1CCC1(C)OC1CCC(C)=CCCC2(C)O (configuration not stated)
GI50 [16]: 1.08 µM (active)
GI50 [17]: 4.35 µM (inactive)
GI50 [18]: 0.463 µM (active)

C/C(=N\NC(=O)c1cccc(N/N=C(\C)c2cc(O)ccc2O)c1)c1cc(O)ccc1O
IC50 [9]: 67.8 µM (active)
EC50 [19]: > 38 µM (not active)
IC50 [10]: 3.43 µM (active)
EC50 [20]: 10.8 µM (active)
EC50 [13]: > 260 µM (inactive)

CC1=C2C3OC(=O)C(C)C3CCC2(C)C=C/C1=N\c1ccccc1 (configuration not stated)
GI50 [16]: > 100 µM (inactive)
GI50 [17]: > 100 µM (inactive)
GI50 [18]: > 100 µM (inactive)

Cc1cc(C(=O)NCCN(C)C)c2nc3ccccc3cc2c1
GI50 [16]: 0.0418 µM (active)
GI50 [17]: 0.519 µM (active)
GI50 [18]: 0.341 µM (active)

O=C1C=CC(=O)c2c(Cl)ccc(O)c21
GI50 [16]: 0.499 µM (active)
GI50 [17]: 25.6 µM (inactive)
GI50 [18]: 0.344 µM (active)

COc1ccc2cc1Oc1ccc(cc1)C[C@H]1c3cc(c(OC)cc3CCN1C)Oc1c(OC)c(OC)cc3c1[C@H](C2)N(C)CC3 [FANCHININ]
GI50 [16]: 1.77 µM (inactive)
GI50 [17]: 7.06 µM (inactive)
GI50 [18]: 3.05 µM (inactive)
